Measured values published in patent US20250345446A1 (Draupnir Bio ApS, priority 2022, published 2025).
Read-outs that look alike come from different tables or passages of the source. Residues, ends and D or L forms follow the SMILES beside them.

Molecular target: T1, soluble ectodomain of sortilin-6his (Homo sapiens, UniProt Q99523, V650M)
T1 construct: the soluble ectodomain of sortilin-6his is measured by microscale thermophoresis (MST)
Assay: MST binding to soluble ectodomain of sortilin-6his
Details: MST; for Kd: read-out: KD score, binding to sortilin (Kd)

[1] = Table 4, small molecule bifunctional compounds
[2] = Table 3, monofunctional peptides

Kd [1] | Kd [2] | SMILES | other results
< 1 nM |  | C[C@@H]1CN(c2ncc(-c3ccc4c(n3)N(Cc3cccnc3C#N)C(C)(C)C4=O)cn2)CCN1C(=O)Cc1cn(CCCCCCCCCn2cc(-c3cccc(Oc4ccc(C(=O)N[C@@H](CCC(C)(C)C)C(=O)O)cn4)c3)nn2)nn1 [BF104, (2S)-2-[[6-[3-[1-[9-[4-[2-[(2R)-4-[5-[1-[(2-cyano-3-pyridyl)methyl]-2,2-dimethyl-3-oxo-pyrrolo[2,3-b]pyridin-6-yl]pyrimidin-2-yl]-2-methyl-piperazin-1-yl]-2-oxo-ethyl]triazol-1-yl]nonyl]triazol-4-yl]phenoxy]pyridine-3-carbonyl]amino]-5,5-dimethyl-hexanoic acid] | 
1 to 10 nM |  | C[C@@H]1CN(c2ncc(-c3ccc4c(n3)N(Cc3cccnc3C#N)C(C)(C)C4=O)cn2)CCN1C(=O)CNC(=O)CCCCCCCCn1cc(CCc2cccc(Oc3ccc(C(=O)N[C@@H](CCC(C)(C)C)C(=O)O)cn3)c2)nn1 [BF108, (2S)-2-[[6-[3-[2-[1-[9-[[2-[(2R)-4-[5-[1-[(2-cyano-3-pyridyl)methyl]-2,2-dimethyl-3-oxo-pyrrolo[2,3-b]pyridin-6-yl]pyrimidin-2-yl]-2-methyl-piperazin-1-yl]-2-oxo-ethyl]amino]-9-oxo-nonyl]triazol-4-yl]ethyl]phenoxy]pyridine-3-carbonyl]amino]-5,5-dimethyl-hexanoic acid] | 
< 1 nM |  | C[C@@H]1CN(c2ncc(-c3ccc4c(n3)N(Cc3cccnc3C#N)C(C)(C)C4=O)cn2)CCN1C(=O)Cn1cc(COCCOCCOCC(=O)N2CC(Oc3cccc(Oc4ccc(C(=O)N[C@@H](CCC(C)(C)C)C(=O)O)cn4)c3)C2)nn1 [BF111, (2S)-2-[[6-[3-[1-[2-[2-[2-[[1-[2-[(2R)-4-[5-[1-[(2-cyano-3-pyridyl)methyl]-2,2-dimethyl-3-oxo-pyrrolo[2,3-b]pyridin-6-yl]pyrimidin-2-yl]-2-methyl-piperazin-1-yl]-2-oxo-ethyl]triazol-4-yl]methoxy]ethoxy]ethoxy]acetyl]azetidin-3-yl]oxyphenoxy]pyridine-3-carbonyl]amino]-5,5-dimethyl-hexanoic acid] | 
< 1 nM |  | C[C@@H]1CN(c2ncc(-c3ccc4c(n3)N(Cc3cccnc3C#N)C(C)(C)C4=O)cn2)CCN1C(=O)Cn1cc(COCCOCCOCC(=O)N2CCC(Oc3cccc(Oc4ccc(C(=O)N[C@@H](CCC(C)(C)C)C(=O)O)cn4)c3)CC2)nn1 [BF112, (2S)-2-[[6-[3-[[1-[2-[2-[2-[[1-[2-[(2R)-4-[5-[1-[(2-cyano-3-pyridyl)methyl]-2,2-dimethyl-3-oxo-pyrrolo[2,3-b]pyridin-6-yl]pyrimidin-2-yl]-2-methyl-piperazin-1-yl]-2-oxo-ethyl]triazol-4-yl]methoxy]ethoxy]ethoxy]acetyl]-4-piperidyl]oxy]phenoxy]pyridine-3-carbonyl]amino]-5,5-dimethyl-hexanoic acid] | 
< 1 nM |  | C[C@@H]1CN(c2ncc(-c3ccc4c(n3)N(Cc3cccnc3C#N)C(C)(C)C4=O)cn2)CCN1C(=O)Cn1cc(COCCOCCN2CCN(CCOCCOc3cccc(Oc4ccc(C(=O)N[C@@H](CCC(C)(C)C)C(=O)O)cn4)c3)CC2)nn1 [BF113, (2S)-2-[[6-[3-[2-[2-[4-[2-[2-[[1-[2-[(2R)-4-[5-[1-[(2-cyano-3-pyridyl)methyl]-2,2-dimethyl-3-oxo-pyrrolo[2,3-b]pyridin-6-yl]pyrimidin-2-yl]-2-methyl-piperazin-1-yl]-2-oxo-ethyl]triazol-4-yl]methoxy]ethoxy]ethyl]piperazin-1-yl]ethoxy]ethoxy]phenoxy]pyridine-3-carbonyl]amino]-5,5-dimethyl-hexanoic acid] | 
< 1 nM |  | C[C@@H]1CN(c2ncc(-c3ccc4c(n3)N(Cc3cccnc3C#N)C(C)(C)C4=O)cn2)CCN1C(=O)Cn1cc(COCCOCCOC2CN(CCOCCOc3cccc(Oc4ccc(C(=O)N[C@@H](CCC(C)(C)C)C(=O)O)cn4)c3)C2)nn1 [BF114, (2S)-2-[[6-[3-[2-[2-[3-[2-[2-[[1-[2-[(2R)-4-[5-[1-[(2-cyano-3-pyridyl)methyl]-2,2-dimethyl-3-oxo-pyrrolo[2,3-b]pyridin-6-yl]pyrimidin-2-yl]-2-methyl-piperazin-1-yl]-2-oxo-ethyl]triazol-4-yl]methoxy]ethoxy]ethoxy]azetidin-1-yl]ethoxy]ethoxy]phenoxy]pyridine-3-carbonyl]amino]-5,5-dimethyl-hexanoic acid] | 
< 1 nM |  | CC(C)(C)CC[C@H](NC(=O)c1ccc(Oc2cccc(OCC(=O)NCCOCCOCCOCCNc3ncc(-c4ccc5c(n4)N(Cc4cccnc4C#N)C(C)(C)C5=O)cn3)c2)nc1)C(=O)O [BF137, (2S)-2-[[6-[3-[2-[2-[2-[2-[2-[[5-[1-[(2-cyano-3-pyridyl)methyl]-2,2-dimethyl-3-oxo-pyrrolo[2,3-b]pyridin-6-yl]pyrimidin-2-yl]amino]ethoxy]ethoxy]ethoxy]ethylamino]-2-oxo-ethoxy]phenoxy]pyridine-3-carbonyl]amino]-5,5-dimethyl-hexanoic acid] | 
1 to 10 nM |  | CC(C)(C)CC[C@H](NC(=O)c1ccc(Oc2cccc(OCC(=O)NCCOCCOCCOCCOc3ncc(-c4ccc5c(n4)N(Cc4cccnc4C#N)C(C)(C)C5=O)cn3)c2)nc1)C(=O)O [BF139] | 
1 to 10 nM |  | CC(C)(C)CC[C@H](NC(=O)c1ccc(Oc2cccc(OCC(=O)NCCOCCOCCOCCOCCOCCOc3ncc(-c4ccc5c(n4)N(Cc4cccnc4C#N)C(C)(C)C5=O)cn3)c2)nc1)C(=O)O [BF143, (S)-2-(6-(3-((20-((5-(1-((2-cyanopyridin-3-yl)methyl)-2,2-dimethyl-3-oxo-2,3-dihydro-1H-pyrrolo[2,3-b]pyridin-6-yl)pyrimidin-2-yl)oxy)-2-oxo-6,9, 12, 15, 18-pentaoxa-3-azaicosyl)oxy)phenoxy)nicotinamido)-5,5-dimethylhexanoic acid] | 
 |  | Cc1cc(-c2ccc(C(=O)NCCCCCCCCCCCC(=O)NCC(=O)N3CCN(c4ncc(-c5ccc6c(n5)N(Cc5cccnc5C#N)C(C)(C)C6=O)cn4)C[C@H]3C)cc2)cc(NC(=O)c2ccc(C(F)(F)F)cc2C(=O)O)n1 [BF146, 2-[[4-[4-[[12-[[2-[(2R)-4-[5-[1-[(2-cyano-3-pyridyl)methyl]-2,2-dimethyl-3-oxo-pyrrolo[2,3-b]pyridin-6-yl]pyrimidin-2-yl]-2-methyl-piperazin-1-yl]-2-oxo-ethyl]amino]-12-oxo-dodecyl]carbamoyl]phenyl]-6-methyl-2-pyridyl]carbamoyl]-5-(trifluoromethyl)benzoic acid] | KD score, binding to sortilin (Kd) [1]: 0
 | 25 to 250 nM | CC(C)C[C@H](NC(=O)[C@H](CC(C)C)NC(=O)[C@H](CCC(N)=O)NC(=O)[C@@H](N)CCCNC(=N)N)C(=O)O [compound 22, RQLL-OH] (H-RQLL-OH) | 
 | 25 to 250 nM | CC(C)C[C@H](NC(=O)[C@H](CC(C)C)NC(=O)[C@H](CCC(N)=O)NC(=O)[C@@H](N)Cc1ccccc1)C(=O)O [compound 23, FQLL-OH] (H-FQLL-OH) | 
 | 25 to 250 nM | CC(C)C[C@H](NC(=O)[C@H](CC(C)C)NC(=O)[C@H](CCC(N)=O)NC(=O)[C@@H](N)CCCCN)C(=O)O [compound 24] (H-KQLL-OH) | 
 | 25 to 250 nM | CC(C)C[C@H](NC(=O)[C@H](CC(C)C)NC(=O)[C@H](CCC(N)=O)NC(=O)[C@@H]1CCCN1)C(=O)O [compound 25] (H-PQLL-OH) | 
 | 25 to 250 nM | CC[C@H](C)[C@H](NC(=O)[C@H](Cc1ccc(O)cc1)NC(=O)[C@@H]1CCCN1)C(=O)N[C@@H](CC(C)C)C(=O)O [compound 26] (H-PYIL-OH) | 
 | 25 to 250 nM | CC(C)C[C@H](NC(=O)[C@H](CC(C)C)NC(=O)[C@H](Cc1ccc(O)cc1)NC(=O)[C@@H](N)CCCNC(=N)N)C(=O)O [compound 27, RYLL-OH] (H-RYLL-OH) | 
